Experimental data as given in article PMC8119466, “A screen of FDA-approved drugs identifies inhibitors of protein tyrosine phosphatase 4A3 (PTP4A3 or PRL-3)” (Scientific Reports, 2021).
Where a name gives a salt, the structure may show the parent alone. Read-outs that look alike come from different tables or passages of the source.

Key:
Format in all cases: biochemical
recombinant PRL-2 = target: T1, recombinant PRL-2 (Homo sapiens, UniProt Q12974); test: In vitro phosphatase assay (DiFMUP hydrolysis), PRL-2;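 further: PRL-2 activity read as DiFMUP hydrolysis after 20 min at room temperature with drug, enzyme first pre-reduced at 4 °C for 20 min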
T1 construct: 6xHis (N, cleaved yes); made in house; host or cells: E. coli One Shot BL21 Star
T1 sequence (Q12974 1-167): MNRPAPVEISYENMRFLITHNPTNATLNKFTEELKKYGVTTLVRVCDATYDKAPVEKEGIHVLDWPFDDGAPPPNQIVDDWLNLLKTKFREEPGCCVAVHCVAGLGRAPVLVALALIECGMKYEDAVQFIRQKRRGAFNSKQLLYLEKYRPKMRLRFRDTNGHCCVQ
Method: Briefly, protein was diluted in reaction buffer and allowed to incubate at 4 °C for 20 min to allow for full reduction of the active site. DiFMUP, drug, and protein were added, and plates were incubated for 20 min at room temperature. Fluorescence intensities were measured on a Cytation 5 plate reader (Biotek) at an EX:360 nm and EM:460 nm. […] Inhibition selectivity for PRLs over a panel of other phosphatases was determined using PhosphataseProfiler (Eurofins, Cat # PP260).

recombinant PRL-1 = target: T2, recombinant PRL-1 (Homo sapiens, UniProt Q93096); test: In vitro phosphatase assay (DiFMUP hydrolysis), PRL-1; on % Phosphatase Activity (compared to DMSO) PRL-1: test concentration or dose not given here
T2 construct: 6xHis (N, cleaved yes); made in house; host or cells: E. coli One Shot BL21 Star
T2 sequence (Q93096 1-173): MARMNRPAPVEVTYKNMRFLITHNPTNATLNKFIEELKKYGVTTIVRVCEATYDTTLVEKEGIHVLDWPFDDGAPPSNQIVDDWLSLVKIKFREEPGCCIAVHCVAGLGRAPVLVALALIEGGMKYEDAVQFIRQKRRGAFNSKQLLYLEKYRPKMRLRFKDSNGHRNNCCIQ

recombinant PRL-3 = target: T3, recombinant PRL-3 (Homo sapiens, UniProt O75365); test: In vitro phosphatase assay (DiFMUP hydrolysis), PRL-3; on % Phosphatase Activity (compared to DMSO) PRL-3: test concentration or dose not given here
T3 construct: 6xHis (N, cleaved yes); made in house; host or cells: E. coli One Shot BL21 Star
T3 sequence (O75365 whole entry): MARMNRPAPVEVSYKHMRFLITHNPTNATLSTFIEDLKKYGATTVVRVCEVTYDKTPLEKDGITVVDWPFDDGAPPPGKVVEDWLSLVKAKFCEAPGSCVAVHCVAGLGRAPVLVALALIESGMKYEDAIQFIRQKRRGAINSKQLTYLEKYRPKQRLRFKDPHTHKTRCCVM

[1] = FDA-approved drug screen, compared to DMSO

| Structure (SMILES) | % Phosphatase Activity (compared to DMSO) PRL-2 (recombinant PRL-2; [1]) | % Phosphatase Activity (compared to DMSO) PRL-1 (recombinant PRL-1; [1]) | % Phosphatase Activity (compared to DMSO) PRL-3 (recombinant PRL-3; [1]) | further results |
| --- | --- | --- | --- | --- |
| COc1cc(/C=C/C(=O)N2CCN(CC(=O)N3CCCC3)CC2)cc(OC)c1OC.O=C(O)/C=C\C(=O)O [Cinepazide maleate] | 134% | 112% | 113% |  |
| CC(C)(Oc1ccc(C2CC2(Cl)Cl)cc1)C(=O)O (stereo not drawn) [Ciprofibrate] | 91% | 95% | 88% |  |
| COc1ccc(C[C@@H]2c3cc(OC)c(OC)cc3CC[N@+]2(C)CCC(=O)OCCCCCOC(=O)CC[N@@+]2(C)CCc3cc(OC)c(OC)cc3[C@H]2Cc2ccc(OC)c(OC)c2)cc1OC [Cisatracurium Besylate] | 103% | 99% | 79% |  |
| CC(=O)NC1CCSC1=O (stereo not drawn) [Citiolone] | 106% | 114% | 93% |  |
| O.O.O.O.O=C([O-])CC(O)(CC(=O)[O-])C(=O)[O-].[Li+].[Li+].[Li+] [Citric acid trilithium salt tetrahydrate] | 92% | 93% | 89% |  |
| Nc1nc(Cl)nc2c1ncn2[C@H]1C[C@H](O)[C@@H](CO)O1 [Cladribine] | 93% | 98% | 82% |  |
| CCCC(=O)OCOC(=O)C1=C(C)NC(C)=C(C(=O)OC)C1c1cccc(Cl)c1Cl (stereo not drawn) [Clevidipine Butyrate] | 437% | 473% | 262% |  |
| Cc1cn([C@H]2O[C@@H](CO)[C@H](O)[C@H]2F)c(=O)[nH]c1=O [Clevudine] | 117% | 103% | 89% |  |
| CC(C)(C)C(=O)C(Oc1ccc(Cl)cc1)n1ccnc1 (stereo not drawn) [Climbazole] | 94% | 87% | 73% |  |
| CCC[C@@H]1C[C@@H](C(=O)N[C@@H]([C@H]2O[C@H](SC)[C@H](OP(=O)(O)O)[C@@H](O)[C@H]2O)[C@H](C)Cl)N(C)C1 [Clindamycin Phosphate] | 76% | 93% | 88% |  |
| CCCCCCCCCCCCCCCC(=O)O[C@@H]1[C@@H](O)[C@@H](O)[C@@H]([C@H](NC(=O)[C@@H]2C[C@@H](CCC)CN2C)[C@H](C)Cl)O[C@@H]1SC.Cl [Clindamycin palmitate HCl] | 133% | 107% | 106% |  |
| CCC(=O)O[C@]1(C(=O)CCl)[C@@H](C)C[C@H]2[C@@H]3CCC4=CC(=O)C=C[C@]4(C)[C@@]3(F)[C@@H](O)C[C@@]21C [Clobetasol propionate] | 88% | 92% | 78% |  |
| Nc1nc(Cl)nc2c1ncn2[C@@H]1O[C@H](CO)[C@@H](O)[C@@H]1F [Clofarabine] | 100% | 97% | 81% |  |
| CC(C)/N=c1\cc2n(-c3ccc(Cl)cc3)c3ccccc3nc-2cc1Nc1ccc(Cl)cc1 [Clofazimine] | 96% | 78% | 69% |  |
| CC(C)(Oc1ccc(Cl)cc1)C(=O)O [Clofibric Acid] | 95% | 99% | 81% |  |
| CC(C)(C)CC(C)(C)c1ccc(O)c(Cc2ccc(Cl)cc2Cl)c1 [Clofoctol] | 87% | 91% | 83% |  |
| CCN(CC)CCOc1ccc(C(=C(Cl)c2ccccc2)c2ccccc2)cc1 [Clomifene citrate] | 128% | 120% | 96% |  |
| CN(C)CCCN1c2ccccc2CCc2ccc(Cl)cc21 [Clomipramine HCl] | 114% | 108% | 96% |  |
| Clc1cccc(Cl)c1N=C1NCCN1 [Clonidine HCl] |  |  |  | % Phosphatase Activity (compared to DMSO) PRL-2 (recombinant PRL-2): 115%; % Phosphatase Activity (compared to DMSO) PRL-1 (recombinant PRL-1): 118%; % Phosphatase Activity (compared to DMSO) PRL-3 (recombinant PRL-3): 85% |

| Structure (SMILES) | % Phosphatase Activity (compared to DMSO) PRL-2 (recombinant PRL-2; [1]) | % Phosphatase Activity (compared to DMSO) PRL-1 (recombinant PRL-1; [1]) | % Phosphatase Activity (compared to DMSO) PRL-3 (recombinant PRL-3; [1]) | further results |
| --- | --- | --- | --- | --- |
| COC(=O)[C@H](c1ccccc1Cl)N1CCc2sccc2C1 [Clopidogrel] |  |  |  | % Phosphatase Activity (compared to DMSO) PRL-2 (recombinant PRL-2): 86%; % Phosphatase Activity (compared to DMSO) PRL-1 (recombinant PRL-1): 100%; % Phosphatase Activity (compared to DMSO) PRL-3 (recombinant PRL-3): 81% |
| Cc1nc(C)c(Cl)c(O)c1Cl [Clopidol] | 109% | 112% | 80% |  |
| CC(C)NCC(O)c1ccccc1Cl.Cl (stereo not drawn) [Clorprenaline HCl] | 102% | 91% | 75% |  |
| Nc1cc(C(Cl)=C(Cl)Cl)c(S(N)(=O)=O)cc1S(N)(=O)=O [Clorsulon] | 115% | 98% | 92% |  |
| Cc1cc(C(C#N)c2ccc(Cl)cc2)c(Cl)cc1NC(=O)c1cc(I)cc(I)c1[O-].[Na+] (stereo not drawn) [Closantel Sodium, reference compound] | 12% | 15% | 34% | IC50 (recombinant PRL-2; […] protein, DiFMUP at KM, read-out: Calculated IC50, PRL-2 phosphatase activity): 18 ± 1 µM; IC50 (recombinant PRL-1; […] protein, DiFMUP at KM, read-out: Calculated IC50, PRL-1 phosphatase activity): 22 ± 8 µM; IC50 (recombinant PRL-3; […] protein, DiFMUP at KM, read-out: Calculated IC50, PRL-3 phosphatase activity): 10 ± 0.4 µM |
| Cc1onc(-c2ccccc2Cl)c1C(=O)N[C@@H]1C(=O)N2[C@@H]1SC(C)(C)[C@@H]2C(=O)O [Cloxacillin Sodium] | 104% | 98% | 87% |  |
| Oc1ccc(Cl)c2cccnc12 [Cloxiquine] | 100% | 108% | 90% |  |
| CN1CCN(C2=Nc3cc(Cl)ccc3Nc3ccccc32)CC1 [Clozapine] | 95% | 108% | 85% |  |
| CC(C)c1nc(CN(C)C(=O)N[C@@H](CCN2CCOCC2)C(=O)N[C@H](CC[C@H](Cc2ccccc2)NC(=O)OCc2cncs2)Cc2ccccc2)cs1 [Cobicistat (GS-9350)] | 95% | 88% | 95% |  |
| O=C(c1ccc(F)c(F)c1Nc1ccc(I)cc1F)N1CC(O)([C@@H]2CCCCN2)C1 [Cobimetinib (GDC-0973, RG7420)] | 97% | 95% | 95% |  |
| Cc1nc2c([nH]1)-c1ccccc1N(C(=O)c1ccc(NC(=O)c3ccccc3-c3ccccc3)cc1)CC2.Cl [Conivaptan HCl] | 106% | 95% | 85% |  |
| CC(=O)OCC(=O)[C@@]1(O)CC[C@H]2[C@@H]3CCC4=CC(=O)CC[C@]4(C)[C@H]3C(=O)C[C@@]21C [Cortisone acetate] | 94% | 98% | 78% |  |
| O=c1ccc2ccccc2o1 [Coumarin] | 98% | 92% | 76% |  |
| CC1(COc2ccc3c(c2)ncn3-c2ccc3cccc(N4CCC(N)CC4)c3n2)COC1 [Crenolanib (CP-868596)] | 115% | 117% | 105% |  |
| CN(C)c1ccc(C(=C2C=CC(=[N+](C)C)C=C2)c2ccc(N(C)C)cc2)cc1 [Crystal Violet] | 86% | 79% | 85% |  |
| COc1cc(/C=C/C(=O)CC(=O)/C=C/c2ccc(O)c(OC)c2)ccc1O [Curcumin] | 77% | 78% | 85% |  |
| CC1CC(OC(=O)C(O)c2ccccc2)CC(C)(C)C1 (stereo not drawn) [Cyclandelate] | 84% | 82% | 74% |  |
| CN1CCN(C(c2ccccc2)c2ccccc2)CC1.Cl.Cl [Cyclizine 2HCl] | 116% | 94% | 69% |  |
| CN(C)CCC=C1c2ccccc2C=Cc2ccccc21 [Cyclobenzaprine HCl] |  |  |  | % Phosphatase Activity (compared to DMSO) PRL-2 (recombinant PRL-2): 103%; % Phosphatase Activity (compared to DMSO) PRL-1 (recombinant PRL-1): 104%; % Phosphatase Activity (compared to DMSO) PRL-3 (recombinant PRL-3): 85% |
